Laboratory results taken from patent US9969775B2, “CGRP antagonist peptides” (Ferring B.V., priority 2015, dated 2018).
Like-named read-outs stand apart in the source and are kept apart here. Numbered stars: 1 amine (or outer) side, 2 acyl side, 3 side chain; on linkers, the order of the positions; unused ones are H or OH. Bridge positions count the residues as written; N and C are the ends. Square brackets hold non-standard residues; d marks the D form. Peptide text beside a SMILES is read from it. * marks the point of attachment. Phe(3-CONH2) = NC(=O)c1cccc(C[C@H](N)C(=O)O)c1; Phe(2-CONH2) = NC(=O)c1ccccc1C[C@H](N)C(=O)O; X5 = O=C([C@H](Cc1ccc(CO)cc1)N[*:1])[*:2]; Picolinoyl(5-F) = O=C(c1ccc(F)cn1)*; Orn(iPr) = CC(C)NCCC[C@H](N)C(=O)O; Benzoyl(4-F) = O=C(c1ccc(F)cc1)*; Oxazole2carbonyl = O=C(c1ncco1)*; 3Pal = N[C@@H](Cc1cccnc1)C(=O)O; Agp = N=C(N)NC[C@H](N)C(=O)O; Picolinoyl = O=C(c1ccccn1)*; ΔPro = O=C(O)[C@@H]1C=CCN1; Dap = NC[C@H](N)C(=O)O; Bz = O=C(c1ccccc1)*

Columns and labels:
[1] = biological target: T1, hCGRP receptor (CALCRL:RAMP1) (Homo sapiens, UniProt O60894+Q16602); assay: CGRP receptor antagonist activity measured by cAMP assay (HTRF); type: cell-based; conditions: for Emax: read-out: hCGRP-R Efficacy Antag (%) Ave; for IC50: GeneBLAzer CALCRL:RAMP1-CRE-bla Freestyle 293F cells, 30 minutes
T1 construct: host or cells: GeneBLAzer CALCRL:RAMP1-CRE-bla Freestyle 293F
T1 sequence (Q16602 23-461): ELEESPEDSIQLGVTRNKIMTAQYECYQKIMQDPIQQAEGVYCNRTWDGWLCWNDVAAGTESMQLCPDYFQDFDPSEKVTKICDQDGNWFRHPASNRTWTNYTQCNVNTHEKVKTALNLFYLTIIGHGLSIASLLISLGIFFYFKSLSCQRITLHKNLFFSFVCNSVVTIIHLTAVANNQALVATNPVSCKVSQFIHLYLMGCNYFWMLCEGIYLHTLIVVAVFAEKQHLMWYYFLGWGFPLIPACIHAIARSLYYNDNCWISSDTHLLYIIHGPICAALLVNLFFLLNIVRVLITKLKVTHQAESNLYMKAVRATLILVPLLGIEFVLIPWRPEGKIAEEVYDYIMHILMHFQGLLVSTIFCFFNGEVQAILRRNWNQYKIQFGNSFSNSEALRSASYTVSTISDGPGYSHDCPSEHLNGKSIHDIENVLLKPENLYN
T1 sequence (O60894 27-148): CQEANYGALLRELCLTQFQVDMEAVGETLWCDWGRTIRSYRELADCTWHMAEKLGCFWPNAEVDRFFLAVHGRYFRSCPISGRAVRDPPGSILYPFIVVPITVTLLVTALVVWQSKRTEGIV

[2] = biological target: T2, hAM2 receptor (CALCRL:RAMP3) (Homo sapiens, UniProt O60896+Q16602); assay: AM2 receptor antagonist activity measured by cAMP assay (HTRF); type: cell-based; conditions: for Emax: read-out: hAM2-R Efficacy Antag (%) Ave; for IC50: GeneBLAzer CALCRL:RAMP3-CRE-bla Freestyle 293F cells; for selectivity ratio CGRP/AM2: selectivity ratio for hCGRP over hAM2, calculated from the IC50 values
T2 construct: expressed in transfected cells; host or cells: GeneBLAzer CALCRL:RAMP3-CRE-bla Freestyle 293F
T2 sequence (Q16602 23-461): as the sequence (Q16602 23-461) above
T2 sequence (O60896 24-148): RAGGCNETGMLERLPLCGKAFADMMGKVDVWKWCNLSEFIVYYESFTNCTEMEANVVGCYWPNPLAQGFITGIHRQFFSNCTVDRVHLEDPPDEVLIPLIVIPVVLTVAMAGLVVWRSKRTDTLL

[3] = % MPE: percent of the maximal possible effect, agonist human α-CGRP
[4] = agonist human α-CGRP, read-out: hCGRP-R IC50 Ave
[5] = % MPE: percent of the maximal possible effect, agonist human adrenomedullin
[6] = agonist human adrenomedullin, read-out: hAM2-R IC50 Ave

Compound	Emax [1, 3] [%]	IC50 [1, 4] [nM]	Emax [2, 5] [%]	IC50 [2, 6] [nM]	selectivity ratio CGRP/AM2 [2]	IC50 ([1]; hCGRP-R IC50 Ave, agonist human α-CGRP) [nM]	Emax [1] [%]	IC50 ([2]; hAM2-R IC50 Ave, agonist human adrenomedullin) [nM]	Emax [2] [%]
CC(C)NCCC[C@@H]1NC(=O)[C@@H](NC(=O)[C@H](Cc2ccccc2C(N)=O)NC(=O)[C@H](NC(=O)c2ncco2)C(C)C)CSSC[C@@H](C(=O)N[C@@H](Cc2cccnc2)C(N)=O)NC(=O)[C@H](Cc2ccc(CO)cc2)NC(=O)[C@@H]2CCCN2C(=O)CNC(=O)[C@H](C(C)C)NC(=O)[C@H](CC(=O)O)NC1=O [Compound 64, Oxazole-2-carbonyl-D-Val-Phe(2-Cbm)-c(Cys-Orn(iPr)-Asp-Val-Gly-Pro-Phe(4-CH2OH)-Cys)-3Pal-NH2] (Oxazole2carbonyl-[dV][Phe(2-CONH2)]C[Orn(iPr)]DVGP[X5]C[3Pal]-NH2; disulfide 3-10)	101	0.12	99	1250	10594				
CC(C)NCCC[C@@H]1NC(=O)[C@@H](NC(=O)[C@H](Cc2ccccc2C(N)=O)NC(=O)[C@H](NC(=O)c2ncco2)C(C)C)CSSC[C@@H](C(=O)N[C@@H](Cc2cccnc2)C(N)=O)NC(=O)[C@H](Cc2cccc(C(N)=O)c2)NC(=O)[C@@H]2C=CCN2C(=O)CNC(=O)[C@H](C(C)C)NC(=O)[C@H](CC(=O)O)NC1=O [Compound 65, Oxazole-2-carbonyl-D-Val-Phe(2-Cbm)-c(Cys-Orn(iPr)-Asp-Val-Gly-Dhp-Phe(3-Cbm)-Cys)-3Pal-NH2] (Oxazole2carbonyl-[dV][Phe(2-CONH2)]C[Orn(iPr)]DVG[ΔPro][Phe(3-CONH2)]C[3Pal]-NH2; disulfide 3-10)	101	0.06	100	318	5492				
CC(C)NCCC[C@@H]1NC(=O)[C@@H](NC(=O)[C@H](Cc2ccccc2C(N)=O)NC(=O)[C@H](NC(=O)c2ccc(F)cn2)C(C)C)CSSC[C@@H](C(=O)N[C@@H](Cc2cccnc2)C(N)=O)NC(=O)[C@H](Cc2ccccc2C(N)=O)NC(=O)[C@@H]2C=CCN2C(=O)CNC(=O)[C@H](C(C)C)NC(=O)[C@H](CC(=O)O)NC1=O [Compound 66, Picolinoyl(5-F)-D-Val-Phe(2-Cbm)-c(Cys-Orn(iPr)-Asp-Val-Gly-Dhp-Phe(2-Cbm)-Cys)-3Pal-NH2] ({Picolinoyl(5-F)}-[dV][Phe(2-CONH2)]C[Orn(iPr)]DVG[ΔPro][Phe(2-CONH2)]C[3Pal]-NH2; disulfide 3-10)	101	0.08	100	84	1027				
CC(C)NCCC[C@@H]1NC(=O)[C@@H](NC(=O)[C@H](Cc2ccc(O)cc2)NC(=O)[C@H](NC(=O)c2ncco2)C(C)C)CSSC[C@@H](C(=O)N[C@@H](Cc2cccnc2)C(N)=O)NC(=O)[C@H](Cc2cccc(C(N)=O)c2)NC(=O)[C@@H]2C=CCN2C(=O)CNC(=O)[C@H](C(C)C)NC(=O)[C@H](CC(=O)O)NC1=O [Compound 67, Oxazole-2-carbonyl-D-Val-Tyr-c(Cys-Orn(iPr)-Asp-Val-Gly-Dhp-Phe(3-Cbm)-Cys)-3Pal-NH2] (Oxazole2carbonyl-[dV]YC[Orn(iPr)]DVG[ΔPro][Phe(3-CONH2)]C[3Pal]-NH2; disulfide 3-10)	101	0.09	99	103	1094				
CC(C)NCCC[C@@H]1NC(=O)[C@@H](NC(=O)[C@H](Cc2ccc(O)cc2)NC(=O)[C@H](NC(=O)c2ccc(F)cn2)C(C)C)CSSC[C@@H](C(=O)N[C@@H](Cc2cccnc2)C(N)=O)NC(=O)[C@H](Cc2cccc(C(N)=O)c2)NC(=O)[C@@H]2C=CCN2C(=O)CNC(=O)[C@H](C(C)C)NC(=O)[C@H](CC(=O)O)NC1=O [Compound 68, Picolinoyl(5-F)-D-Val-Tyr-c(Cys-Orn(iPr)-Asp-Val-Gly-Dhp-Phe(3-Cbm)-Cys)-3Pal-NH2] ({Picolinoyl(5-F)}-[dV]YC[Orn(iPr)]DVG[ΔPro][Phe(3-CONH2)]C[3Pal]-NH2; disulfide 3-10)	101	0.06	100	18	300				
CC(C)[C@@H]1NC(=O)[C@H](CC(=O)O)NC(=O)[C@H](CNC(=N)N)NC(=O)[C@@H](NC(=O)[C@H](Cc2ccc(O)cc2)NC(=O)[C@H](NC(=O)c2ccc(F)cc2)C(C)C)CSSC[C@@H](C(=O)N[C@@H](Cc2cccnc2)C(N)=O)NC(=O)[C@H](Cc2ccccc2)NC(=O)[C@@H]2CCCN2C(=O)CNC1=O [Ref. Cpd. 1, Bz(4-F)-D-Val-Tyr-c(Cys-Agp-Asp-Val-Gly-Pro-Phe-Cys)-3Pal-NH2, reference compound] ({Benzoyl(4-F)}-[dV]YC[Agp]DVGPFC[3Pal]-NH2; disulfide 3-10)	100		98						
CC(C)[C@@H]1NC(=O)[C@H](CC(=O)O)NC(=O)[C@H](CN)NC(=O)[C@@H](NC(=O)[C@H](Cc2ccc(O)cc2)NC(=O)[C@H](NC(=O)c2ccccc2)C(C)C)CSSC[C@@H](C(=O)N[C@@H](Cc2cccnc2)C(N)=O)NC(=O)[C@H](Cc2ccccc2)NC(=O)[C@@H]2CCCN2C(=O)CNC1=O [Ref. Cpd. 2, Bz-D-Val-Tyr-c(Cys-Dpr-Asp-Val-Gly-Pro-Phe-Cys)-3Pal-NH2, reference compound] (Bz-[dV]YC[Dap]DVGPFC[3Pal]-NH2; disulfide 3-10)					387	0.52	100	200	100

Continued, in another order:

Emax [1, 3] [%]	IC50 [1, 4] [nM]	Emax [2, 5] [%]	IC50 [2, 6] [nM]	selectivity ratio CGRP/AM2 [2]	Compound	IC50 ([1]; hCGRP-R IC50 Ave, agonist human α-CGRP) [nM]	Emax [1] [%]	IC50 ([2]; hAM2-R IC50 Ave, agonist human adrenomedullin) [nM]	Emax [2] [%]
101	0.1	98	85	848	CC(C)NCCC[C@@H]1NC(=O)[C@@H](NC(=O)[C@H](Cc2ccccc2C(N)=O)NC(=O)[C@H](NC(=O)c2ccc(F)cn2)C(C)C)CSSC[C@@H](C(=O)N[C@@H](Cc2cccnc2)C(N)=O)NC(=O)[C@H](Cc2ccc(CO)cc2)NC(=O)[C@@H]2C=CCN2C(=O)CNC(=O)[C@H](C(C)C)NC(=O)[C@H](CC(=O)O)NC1=O [Compound 63, Picolinoyl(5-F)-D-Val-Phe(2-Cbm)-c(Cys-Orn(iPr)-Asp-Val-Gly-Dhp-Phe(4-CH2OH)-Cys)-3Pal-NH2] ({Picolinoyl(5-F)}-[dV][Phe(2-CONH2)]C[Orn(iPr)]DVG[ΔPro][X5]C[3Pal]-NH2; disulfide 3-10)				
100	0.13	100	64	497	CC(C)NCCC[C@@H]1NC(=O)[C@@H](NC(=O)[C@H](Cc2ccc(O)cc2)NC(=O)[C@H](NC(=O)c2ccccn2)C(C)C)CSSC[C@@H](C(=O)N[C@@H](Cc2cccnc2)C(N)=O)NC(=O)[C@H](Cc2ccc(CO)cc2)NC(=O)[C@@H]2C=CCN2C(=O)CNC(=O)[C@H](C(C)C)NC(=O)[C@H](CC(=O)O)NC1=O [Compound 69, Picolinoyl-D-Val-Tyr-c(Cys-Orn(iPr)-Asp-Val-Gly-Dhp-Phe(4-CH2OH)-Cys)-3Pal-NH2] (Picolinoyl-[dV]YC[Orn(iPr)]DVG[ΔPro][X5]C[3Pal]-NH2; disulfide 3-10)				
100	0.15	100	107	727	CC(C)NCCC[C@@H]1NC(=O)[C@@H](NC(=O)[C@H](Cc2ccc(O)cc2)NC(=O)[C@H](NC(=O)c2ncco2)C(C)C)CSSC[C@@H](C(=O)N[C@@H](Cc2cccnc2)C(N)=O)NC(=O)[C@H](Cc2ccc(CO)cc2)NC(=O)[C@@H]2C=CCN2C(=O)CNC(=O)[C@H](C(C)C)NC(=O)[C@H](CC(=O)O)NC1=O [Compound 70, Oxazole-2-carbonyl-D-Val-Tyr-c(Cys-Orn(iPr)-Asp-Val-Gly-Dhp-Phe(4-CH2OH)-Cys)-3Pal-NH2] (Oxazole2carbonyl-[dV]YC[Orn(iPr)]DVG[ΔPro][X5]C[3Pal]-NH2; disulfide 3-10)				
